Tested on: Urothelial cell
Assay: Urothelial cell scratch assay (wound assay)
Type: cell-based
Conditions: at 48 hours; FIGS. 7A-7B
Source text: As used herein a “scratch assay,” (i.e., a wound assay) is a method to measure two-dimensional cell migration. Six growth factors were selected and tested: EGF, FGF-2, PDGF, TGF-β1, and VEGF.

Substance	wound gap coverage
IGF-1: insulin-like growth factor 1, growth factor tested in urothelial scratch assay	increase
EGF: epidermal growth factor, growth factor tested in urothelial scratch assay (NSDSECPLSHDGYCLHDGVCMYIEALDKYACNCVVGYIGERCQYRDLKWWELR; UniProt P01133 971-1023, looked up)	increase
